Where two headings read alike, the source gives them in different places.
Columns and labels:
sigma receptors = target: T1, sigma receptors (Cavia porcellus, UniProt Q60492); assay: Receptor binding test: inhibition of tritium-labeled (+) pentazocine binding to brain homogenate; design: species or system male guinea pig
T1 construct: The brain was immediately extracted; The cerebellum was removed from the brain; from tissue; host or cells: guinea pig brain without cerebellum, membrane pellet
Method: (§1) Properties relating to binding of the vesamicol piperazine derivatives of the present invention to various receptors were examined as follows. Specifically, ligands which combine with each receptor were incubated together with homogenates prepared as follows.
To measure affinity to sigma receptors, tritium-labeled (+) pentazocine was added to a brain homogenate prepared as follows. The vesamicol piperazine derivatives synthesized in the Examples were added at various concentrations, and the mixture was incubated for two hours at room temperature.
(§2) B (%) =((1 0 0 × [U])^(∩))/([ I C50 (])^(∩) (+ [U])^(∩)) [formula] wherein B(%) is the proportion of specific binding in the total binding, n indicates a Hill coefficient, and U is the concentration of unbound ligand.
A male guinea pig was anesthetized with ether and was decapitated. The brain was immediately extracted. The cerebellum was removed from the brain. 10 mM Tris-sucrose buffer solution (0.32 M sucrose + 10 mM Tris-HCl (pH 7.4)) was added in the amount of 10 ml/g of the tissue. The mixture was homogenized by a potter-type homogenizer for 6-10 strokes. The homogenate was centrifuged at 1,000 x g for 10 minutes at 4°C and the supernatant liquid was collected. The resulting pellets were suspended in the Tris-sucrose buffer solution at the concentration of 2 ml/g, followed by centrifugation at 1,000 x g for 10 minutes at 4°C. The supernatant liquids obtained by the two centrifugation at 1,000 x g were combined and centrifuged at 31,000 x g for 15 minutes at 4°C. The resulting pellets were suspended in a 10 mM Tris-HCl buffer solution (pH 7.4) at a concentration of 3 ml/g of tissue and incubated for 30 minutes at 25°C. After incubation, the suspension was centrifuged at 31,000 x g for 15 minutes at 4°C. The pellets obtained were suspended in a 10 mM Tris-HCl buffer solution (pH 7.4) to make a final concentration of 1.53 ml/g of tissue. The suspension was homogenized by a potter-type homogenizer for 5 strokes. The homogenate was stored at -80°C until the start of the experiment.

vesamicol receptors [1] = target: T2, vesamicol receptors (Rattus norvegicus, UniProt Q62666); assay: Receptor binding test: inhibition of I-125 labeled 5-iodobenzo vesamicol binding to brain homogenate; design: from tissue; host or cells: rat brain without cerebellum, P2 fraction; species or system Male Wistar rats; details: for IC50: Inhibitive concentration at 50% (IC50), Vesamicol receptor, Table 5, incubated three hours at 37°C, no unit printed in table (b19 gives nM for DRC140)
T2 sequence (Q62666 1-530): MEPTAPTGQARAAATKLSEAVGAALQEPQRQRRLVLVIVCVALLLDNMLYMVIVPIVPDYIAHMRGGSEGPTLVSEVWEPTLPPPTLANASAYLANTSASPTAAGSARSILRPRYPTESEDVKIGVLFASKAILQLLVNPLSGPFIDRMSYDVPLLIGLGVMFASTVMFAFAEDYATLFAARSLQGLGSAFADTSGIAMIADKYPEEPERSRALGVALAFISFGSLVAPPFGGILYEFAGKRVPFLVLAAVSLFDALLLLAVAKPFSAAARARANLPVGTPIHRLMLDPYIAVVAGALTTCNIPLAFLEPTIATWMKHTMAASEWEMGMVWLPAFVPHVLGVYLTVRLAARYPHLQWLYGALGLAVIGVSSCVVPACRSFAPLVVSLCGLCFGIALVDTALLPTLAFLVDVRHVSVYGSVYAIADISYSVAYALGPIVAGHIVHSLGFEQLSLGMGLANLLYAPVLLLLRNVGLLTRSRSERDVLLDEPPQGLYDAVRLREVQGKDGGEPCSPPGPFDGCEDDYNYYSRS
Method: as §1
To measure affinity of vesamicol receptors, I-125 labeled 5-iodobenzo vesamicol (synthesized and labeled according to Jung et al., J. Med. Chem. 33, 2065-2068, 1990) was added to a brain homogenate prepared as follows. The vesamicol piperazine derivatives synthesized in the Examples were added at various concentrations. The mixture was then incubated for three hours at 37°C.
as §2
Male Wistar rats were anesthetized with ether and were decapitated. The brains were immediately extracted. The cerebella were removed from the brains. 0.32 M sucrose (containing 4 mM HEPES (pH 7.4)) in an amount of five times the wet amount (weight) of this sample was added. The sample was homogenized by a potter-type homogenizer for 12 strokes while cooling with ice. 0.32 M sucrose in the same amount as the homogenate (total: 10 times the wet amount of the original sample) was added. The suspension thus obtained was centrifuged for 5 minutes at 1,000 x g. The precipitate was removed. The supernatant liquid was centrifuged at 9,200 x g for 15 minutes to separate the precipitate from the supernatant liquid. P2 fractions were suspended in a Tris-HCl buffer (pH 7.4) for binding experiments and stored at -80°C until the start of the binding experiment.

vesamicol receptors [2] = target: T2, vesamicol receptors; assay: Inhibition experiment: inhibition of binding of radioactive-iodine-labeled DRC140 to P2 fractions; design: Synaptic vesicles were extracted and separated from the brain of a rat; from tissue; host or cells: rat brain without cerebellum: P2, crude synaptic vesicles, purified synaptic vesicles
[3] = target: T3, serotonin 5-HT1A receptors (Rattus norvegicus, UniProt P19327); assay: Receptor binding test: inhibition of tritium-labeled 8-hydroxy-DPAT binding to brain (hippocampus) homogenate; design: species or system Male Wistar rats
T3 construct: The hippocampi were immediately collected from the brains; from tissue; host or cells: rat hippocampus membranes
T3 sequence (P19327 1-422): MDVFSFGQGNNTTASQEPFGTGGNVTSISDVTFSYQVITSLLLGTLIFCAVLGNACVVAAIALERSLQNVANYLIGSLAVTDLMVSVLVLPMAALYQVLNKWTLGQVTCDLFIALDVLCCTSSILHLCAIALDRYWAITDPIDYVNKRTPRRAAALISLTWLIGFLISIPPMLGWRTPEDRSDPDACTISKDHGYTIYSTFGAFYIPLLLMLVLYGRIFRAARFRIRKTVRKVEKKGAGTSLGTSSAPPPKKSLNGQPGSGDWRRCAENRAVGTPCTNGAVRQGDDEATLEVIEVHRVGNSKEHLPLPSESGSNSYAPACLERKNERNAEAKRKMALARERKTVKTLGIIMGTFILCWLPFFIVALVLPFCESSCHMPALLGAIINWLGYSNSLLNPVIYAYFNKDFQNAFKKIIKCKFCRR
Method: as §1
To measure affinity to serotonin 5-HT1A receptors, tritium-labeled 8-hydroxy-DPAT was added to a brain homogenate prepared as follows. The vesamicol piperazine derivatives synthesized in the Examples were added at various concentrations, and the mixture was incubated for 30 minutes at 37°C. To measure affinity to serotonin 5-HT2A receptors, tritium-labeled ketanserin was added to a brain homogenate prepared as follows. The vesamicol piperazine derivatives synthesized in the Examples were added at various concentrations, and the mixture was incubated for 15 minutes at 37°C.
as §2
Male Wistar rats were anesthetized with ether and were decapitated and the brains quickly extracted. The hippocampi were immediately collected from the brains. A 40-fold (vol/wt) amount of ice cooled 50 mM Tris-HCl buffer (pH 7.4) was added to the hippocampi. The mixture was homogenized using a potter-type homogenizer. The homogenate was centrifuged at 40,000 x g for 20 minutes. The supernatant liquid was removed and the resulting pellets were suspended in a 40-fold amount of Tris-HCl buffer solution. The suspension was centrifuged and the Tris buffer solution was again added to the pellets. This procedure was repeated twice. The product thus obtained was homogenized using a 40-fold amount of Tris-HCl buffer solution and incubated for 10 minutes at 37°C to remove endogenic 5-HT. The cell membrane was collected by centrifugation, washed twice, and suspended in a 10-fold amount of 50 mM Tris-HCl buffer solution (pH 7.4). The suspension thus obtained was stored at -80°C until the start of the binding experiment.

adrenaline α1 receptors = assay: Receptor binding test: inhibition of tritium-labeled prazosin binding to brain homogenate; design: species or system Male Wistar rats
vesamicol receptors [4] = target: T2, vesamicol receptors; assay: Saturation experiment of I-125 labeled DRC140 on brain cell fractions (Scatchard plots); type: binding; design: Synaptic vesicles were extracted and separated from the brain of a rat; from tissue; host or cells: rat brain without cerebellum: P2, crude synaptic vesicles, purified synaptic vesicles; details: for Bmax / Kd: average value ± standard deviation
vesamicol receptors [5] = target: T2, vesamicol receptors; assay: Inhibition experiment: inhibition of binding of radioactive-iodine-labeled DRC140 to purified synaptic vesicle fractions; design: Synaptic vesicles were extracted and separated from the brain of a rat; from tissue; host or cells: rat brain without cerebellum: P2, crude synaptic vesicles, purified synaptic vesicles; details: for inhibitive action on purified synaptic vesicles: result in words
[6] = Inhibitive concentration at 50% (IC50), Sigma α-1 receptor
[7] = inhibitive concentration at 50% (IC50), Receptor Vesamicol

T1 sequence (Q60492 whole entry): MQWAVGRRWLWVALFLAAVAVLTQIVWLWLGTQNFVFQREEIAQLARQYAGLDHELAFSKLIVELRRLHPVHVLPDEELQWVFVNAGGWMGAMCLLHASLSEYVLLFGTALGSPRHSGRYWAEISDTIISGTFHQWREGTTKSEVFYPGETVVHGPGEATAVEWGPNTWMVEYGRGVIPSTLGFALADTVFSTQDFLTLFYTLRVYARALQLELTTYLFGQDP

## Cc1cccc(C)c1N1CCN([C@@H]2Cc3c(I)cccc3C[C@H]2O)CC1 (racemic) [DRF382, (±)-trans-5-iodo-2-hydroxy-3-[4-[2,6-dimethylphenyl]piperazinyl]tetralin]
Sigma receptors; [6]
  IC50: 1300 nM
Vesamicol receptors [1]
  IC50: 5.04 nM
Vesamicol receptors [2]; [7]
  IC50: 6.94 nM

## Cc1ccc(I)cc1N1CCN([C@@H]2Cc3c(N)cccc3C[C@H]2O)CC1 (racemic) [DRF383, (±)-trans-5-amino-2-hydroxy-3-[4-[5-iodo-2-methylphenyl]-piperazinyl]tetralin]
Sigma receptors; [6]
  IC50: 6900 nM
Vesamicol receptors [1]
  IC50: 8.74 nM
Vesamicol receptors [2]; [7]
  IC50: 8.47 nM

## O[C@@H]1Cc2cc(I)ccc2C[C@H]1N1CCN(c2ccccc2)CC1 (racemic) [DRG449, (±)-trans-7-iodo-2-hydroxy-3-[4-phenylpiperazinyl]tetralin]
Sigma receptors; inhibitive concentration at 50% (IC50), Receptor Sigma-1
  IC50: 348 nM
[3]
  IC50: 4770 nM
Vesamicol receptors [2]; [7]
  IC50: 0.55 nM

## Cc1ccccc1N1CCN([C@@H]2Cc3c(I)cccc3C[C@H]2O)CC1 (single isomer, unassigned) [DRE342, (-)-trans-5-iodo-2-hydroxy-3-[4-[2-methylphenyl]piperazinyl]tetralin]
Sigma receptors; [6]
  IC50: 50 nM
[3]
  IC50: 512 nM
Vesamicol receptors [1]
  IC50: 0.23 nM
Vesamicol receptors [2]; [7]
  IC50: 0.56 nM

## Cc1ccc(C)c(N2CCN([C@@H]3Cc4c(I)cccc4C[C@H]3O)CC2)c1 (single isomer, unassigned) [DRE351, (+)-trans-5-iodo-2-hydroxy-3-[4-[2,5-dimethylphenyl]piperazinyl]tetralin]
Sigma receptors; [6]
  IC50: 4500 nM
[3]
  IC50: 664 nM
Vesamicol receptors [1]
  IC50: 7.11 nM
Vesamicol receptors [2]; [7]
  IC50: 11.4 nM

## O[C@@H]1Cc2cccc(I)c2C[C@H]1N1CCC(c2ccccc2)CC1 [5-iodobenzovesamicol]
Adrenaline α1 receptors; applicant's own research, read-out: affinity to an α1-receptor (IC50)
  IC50: 6.74 nM

## O[C@@H]1Cc2cccc(I)c2C[C@H]1N1CCN(c2ccccc2)CC1 [DRC140, (-)-trans-5-iodo-2-hydroxy-3-(4-phenyl-1-piperazinyl)tetralin]
Vesamicol receptors [4]; at 37°C
  time to reach equilibrium: 3 h
Vesamicol receptors [1]; ratio of IC50 α1-receptor / vesamicol receptors
  greater affinity to vesamicol receptors (versus α1-receptor): 190 times
Vesamicol receptors [1]; ratio vesamicol receptor versus sigma receptor
  activity to the vesamicol receptor as high as the activity to the sigma receptor: 4,000 times
Adrenaline α1 receptors; read-out: Inhibitive concentration at 50% (IC50), Adrenaline α1 receptor, Table 5, incubated 30 minutes at 37°C, unit inferred
  IC50: 402 nM
Adrenaline α1 receptors; text of disclosure, adrenaline-type nerve system receptor, read-out: IC50 value for α1-receptor
  IC50: 402 nM

## Cc1ccccc1NC(=N)Nc1ccccc1C [DTG, reference compound]
Vesamicol receptors [5]
  IC50: 4160 ± 251 nM
  inhibitive action on purified synaptic vesicles: almost the same degree of weak inhibitive action
Vesamicol receptors [2]
  inhibitive action on P2 fractions: weak inhibitive action
Vesamicol receptors [2]; IC50 (nM) Average ± S.D
  IC50: 3820 ± 930 nM

## OC1Cc2cccc([125I])c2CC1N1CCN(c2ccccc2)CC1 (stereo not drawn) [I-125 labeled DRC140]
Vesamicol receptors [4]; Crude synaptic vesicles
  Bmax: 821±78.6 fmol/mg protein
  Kd: 0.34 ± 0.03 nM
Vesamicol receptors [4]; P2 fraction
  Kd: 0.41 ± 0.11 nM
Vesamicol receptors [4]; Purified synaptic vesicles
  Kd: 0.31 nM
  Bmax: 1751±92.6 fmol/mg protein
Vesamicol receptors [4]; P2 fraction, 3 hours at 37°C
  Bmax: 187±58.3 fmol/mg protein
Vesamicol receptors [4]; purified by density gradient centrifugation versus P2 fractions
  increase in the Bmax of purified synaptic vesicles relative to P2 fractions: approximately nine

## O=C(c1ccc(F)cc1)C1CCN(CCn2c(=O)[nH]c3ccccc3c2=O)CC1 [Ketanserin, reference compound]
Vesamicol receptors [5]; Table 8, purified synaptic vesicle fractions, inhibition of radioactive-iodine-labeled DRC140 binding, read-out: IC50 (nM) Average ± S.D
  IC50: 1200 ± 43 nM
Vesamicol receptors [5]
  inhibitive action on purified synaptic vesicles: almost the same degree of weak inhibitive action
Vesamicol receptors [2]; Table 7, P2 fractions, inhibition of radioactive-iodine-labeled DRC140 binding, Binding site names the inhibitor's own site, read-out: IC50 (nM) Average ± S.D
  IC50: 1110 ± 187 nM
Vesamicol receptors [2]; result in words
  inhibitive action on P2 fractions: weak inhibitive action

## m-(iodobenzyl)trozamicol [(+)-MIBT, reference compound]
Sigma receptors; read-out: inhibitive concentration at 50% (IC50), Receptor Sigma-1, Table 9, high purity derivatives, unit inferred
  IC50: 4.27 nM
[3]; read-out: inhibitive concentration at 50% (IC50), Receptor 5-HT1A, Table 9, high purity derivatives, unit inferred
  IC50: 16600 nM
Adrenaline α1 receptors; read-out: inhibitive concentration at 50% (IC50), Receptor Alpha-1, Table 9, high purity derivatives, unit inferred
  IC50: 421 nM
Vesamicol receptors [2]; read-out: inhibitive concentration at 50% (IC50), Receptor Vesamicol, Table 9, high purity derivatives (HPLC purified), I-125 labeled DRC140, P2 fractions, 3 hours at 37°C, unit inferred
  IC50: 0.89 nM

Source: patent EP1205473A1, “VESAMICOL PIPERAZINE DERIVATIVES AND DRUGS CONTAINING THE SAME” (DAIICHI RADIOISOTOPE LABORATORIES, LTD., priority 1999, dated 2001)
